Legend:
[1] = system: Choline Acetyltransferase (ChAT) mRNA; experiment: Measurement of choline acetyltransferase (ChAT) mRNA expression levels in the rat septal area; assay type: in vivo; conditions: SD rat medial septum, oral 10 mg/kg, 24 hours after administration, qPCR
Experimental: Measurement of Choline Acetyltransferase (ChAT) mRNA Expression Levels in the Rat Septal Area
(§1) (1) Compound Administration
In this study, SD male rats (Charles River Laboratories Japan, Inc.) with a body weight of about 250 to 350 g were used. The compound was dissolved in 0.01 mol/L hydrochloric acid, and orally administered.
At 24 hours after the administration of the compound, the whole brain tissue was collected under pentobarbital anesthesia. The medial septum was isolated from whole brain on ice and frozen with liquid nitrogen, and then stored at −80° C.
(3) Measurement of ChAT mRNA Expression Levels
For RNA purification, RNeasy Plus Mini Kit (#74136: QIAGEN) was used in this study. RNA purification was performed by the method described in the kit. After RNA purification, the total RNA concentration was measured by using QIAxpert Instrument (QIAGEN). cDNA was synthesized using SuperScript® VILO™ cDNA Synthesis Kit (#11754: Thermo Fisher Scientific). The synthesis of cDNA was performed by the method described in the kit. The synthesized cDNA was diluted 4 times with RNase free water, and the diluted cDNA solution was used as a sample. Taqman Universal PCR Master Mix (#4304437: Thermo Fisher Scientific), Taqman® Gene Expression Assays, INVENTORIED (#4331182: Thermo Fisher Scientific), RNase free water, and the cDNA solution were mixed in amounts of 10 μl, 1 μl, 4 μl, and 5 μl, respectively, and the resulting mixture was used as a measurement sample solution. Quantitative polymerase chain reaction (qPCR) was conducted using ABI PRISM® 7900HT (Thermo Fisher Scientific) by a fluorescence probe method. Analysis was performed by SDS 2.4 (Thermo Fisher Scientific). The results were calculated by the percentage of the amount of ChAT mRNA expression levels in the compound administration group increased from the amount of ChAT mRNA expression levels in the vehicle administration group.

[2] = system: human tau P301S transgenic mice; experiment: Evaluation in human tau P301S transgenic mouse: ChAT positive cells in the medial septal area; assay type: in vivo; conditions: mean±SEM
From the text: Evaluation in Human Tau P301S Transgenic Mouse
as §1
In this study, the test compounds were orally administered to human tau P301S transgenic mice once a day for three months from four-month-old to seven-month-old. The vehicle used was 0.01 mol/L hydrochloric acid.
At the initial day of the administration (four-month-old) and at the next day of the final administration, mice of vehicle administration group and test compound administration group were anesthetized under pentobarbital (50 mg/kg, i.p.) and perfused with PBS. After the perfusion, the forebrain including the medial septal area was collected and fixed with 4% paraformaldehyde.
(3) Preparation of Brain Coronal Frozen Section
The collected forebrain including the medial septal area was immersed and shaken overnight in 4% paraformaldehyde. […]
The prepared brain coronal frozen sections were stained with DAB (DAB PEROXIDASE SUBSTRATE KIT (Vector, SK-4100)) using a ChAT antibody (Santa Cruz, S.C.-20672) as a primary antibody. The section image including the medial septal area as shown in “The mouse Brain in stereotaxic coordinates” (COMPACT THIRD EDITION, Keith B.J. Franklin & George Paxinos) was taken by an all-in-one fluorescence microscope (KEYENCE, BZ-X710) and ChAT positive cells around the major axis of the medial septal area were counted by BZ analysis software (KEYENCE). […] Data are expressed as the mean±SEM. […]

Which “Amount (%) increased from the amount of ChAT mRNA expression levels in the vehicle administration group” value [1] does the source give for `CN1CCc2c(sc3nc4n(c(=O)c23)-c2ccc(F)cc2C(=O)N(C)C4)C1` [Example 1] here?
The value was 73.3%.

What about the “Ratio (%) of number of ChAT positive cells compared to that in the initial administration” value ([2]; oral 10 mg/kg once a day for three months (4 to 7 months old)) of the same compound?
The value was 105.0 ± 4.0^# %.

Which “Amount (%) increased from the amount of ChAT mRNA expression levels in the vehicle administration group” value [1] does the source give for `CN1CCc2c(sc3nc4n(c(=O)c23)-c2sccc2C(=O)N(C)C4)C1` [Example 3, 5,10-dimethyl-5,6,9,10,11,12-hexahydropyrido[4″,3″:4′,5′]thieno[2′,3′:4,5]pyrimido[1,2-a]thieno[3,2-f][1,4]diazepine-4,13-dione] here?
The value was 56.4%.

And the “Ratio (%) of number of ChAT positive cells compared to that in the initial administration” value ([2]; oral 5 mg/kg once a day for three months (4 to 7 months old))?
Its value is 105.3 ± 4.3^# %.

Reference: US10239889B1, “Pentacyclic compound” (Eisai R&D Management Co., Ltd., priority 2017, dated 2019)
